For one molecule, PGE2 release (% of UV control) and LDH release (% of UV control) results are on record in US11234918B2, “Methods for botanical and/or algae extraction” (BASF CORPORATION, priority 2012, dated 2022).

Test [1] relates to human keratinocytes. As to the kind of experiment: UVB light protection: PGE2 release from UVB-irradiated in vitro cultivated human keratinocytes, ELISA (UVB-PGE2). Format: cell-based. Particulars: positive control aspirin at 0.03%, control with UV = 100.
Experimental: (§1) Cell Protection Effect Against UVB on In Vitro Cultivated Human Keratinocytes
(§2) Method: To carry out the tests, a defined medium (DMEM), which comprises 10% fetal calf serum, was inoculated with the keratinocytes and the plant extract (diluted with saline solution) was added 72 hours after inoculation.
(§3) The keratinocytes were then irradiated with a UVB dose (30 mJ/cm^2-tubes: DUKE GL40E).
Following further incubation for 1 day at 37° C. and at 5% CO2, the LDH and the PGE2 content in the supernatant was determined. […] The content of PGE2 was determined using an ELISA test (ELISA kit from Roche).
UVB-PGE2 prostaglandins E2 determined using an ELISA test (ELISA kit from Roche).
For test [2], the system named is human keratinocytes. As to the kind of experiment: UVB light protection: LDH release from UVB-irradiated in vitro cultivated human keratinocytes (UVB-LDH). In kind it is cell-based. The settings on record: positive control aspirin at 0.03%, control with UV = 100.
Text: Antiinflammatory Properties In Vitro-UVB Light Protection (UVB-LDH and UVB-PGE2)
as §1
This membrane stress is indicated by the release of the cytoplasm enzyme lactate dehydrogenase (LDH). The effect of UVB radiation was investigated on keratinocytes in vitro by determining the release of the cytoplasm enzyme LDH (lactate dehydrogenase). This enzyme serves as a marker for cell damage.
as §2, §3
Following further incubation for 1 day at 37° C. and at 5% CO2, the LDH and the PGE2 content in the supernatant was determined. The content of LDH (lactate dehydrogenase) was determined by means of an enzyme reaction (kit used to investigate the LDH content from Roche). The content of PGE2 was determined using an ELISA test (ELISA kit from Roche). Following trypsin treatment, the cells were centrifuged and counted.
UVB-LDH LDH or lactate dehydrogenase determination by means of an enzyme reaction

Regarding `CC(=O)Oc1ccccc1C(=O)O` [aspirin], the PGE2 release (% of UV control) in the test on human keratinocytes [1] (Table 4) is -6%; in the test on human keratinocytes [1] (Table 6), 0%. In addition, the LDH release (% of UV control) in the test with human keratinocytes [2] (Table 4) is 15%; in the test with human keratinocytes [2] (Table 6), 0%.
